# Patent publication US9815846B2 (Merck Sharp & Dohme Corp., priority 2014, dated 2017)
# Target: human TrkA receptor (Homo sapiens (Human), UniProt P04629)
# Test: DiscoverX PathHunter TrkA functional assay (NGF-stimulated U2OS cells)
# Assay type: cell-based
# Settings: U2OS cells expressing human TrkA-PK, Shc1-EA and p75NTR; compound 1 h, then NGF at ~80% of maximal response for 3 h; luminescence
# Chain of human TrkA receptor (P04629 33-796): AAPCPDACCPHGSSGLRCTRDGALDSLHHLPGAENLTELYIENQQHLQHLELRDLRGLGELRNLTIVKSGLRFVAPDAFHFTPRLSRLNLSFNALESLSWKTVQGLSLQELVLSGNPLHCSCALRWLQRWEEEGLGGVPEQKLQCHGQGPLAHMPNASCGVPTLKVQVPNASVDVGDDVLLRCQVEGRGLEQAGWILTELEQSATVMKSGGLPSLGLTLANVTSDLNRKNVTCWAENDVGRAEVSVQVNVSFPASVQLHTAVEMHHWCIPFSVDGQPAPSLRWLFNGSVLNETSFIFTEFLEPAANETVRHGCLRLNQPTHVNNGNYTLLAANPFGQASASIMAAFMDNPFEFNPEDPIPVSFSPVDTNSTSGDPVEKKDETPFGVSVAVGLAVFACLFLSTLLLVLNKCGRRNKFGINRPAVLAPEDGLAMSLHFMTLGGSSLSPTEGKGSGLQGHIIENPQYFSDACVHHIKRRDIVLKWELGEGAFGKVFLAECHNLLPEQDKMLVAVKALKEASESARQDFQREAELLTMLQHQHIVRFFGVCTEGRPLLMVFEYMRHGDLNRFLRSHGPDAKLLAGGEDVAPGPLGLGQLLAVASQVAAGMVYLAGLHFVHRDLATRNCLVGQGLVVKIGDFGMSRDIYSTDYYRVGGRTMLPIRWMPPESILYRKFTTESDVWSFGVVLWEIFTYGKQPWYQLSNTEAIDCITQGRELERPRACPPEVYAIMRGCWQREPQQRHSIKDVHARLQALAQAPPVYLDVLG
row,SMILES,IC50
1,"Cc1ncc(NC(=O)c2ccc(C(F)(F)F)c(-c3cc[nH]n3)c2)c(-c2ccccc2)n1 [Example 21, N-(2-methyl-4-phenylpyrimidin-5-yl)-3-(1H-pyrazol-3-yl)-4-(trifluoromethyl)benzamide]",35 nM
2,"Cc1ncc(NC(=O)c2cc(-c3ccn(C)n3)c(C(F)(F)F)cc2F)c(-c2ccccc2CO)n1 [Example 136, 2-Fluoro-N-(4-(2-(hydroxymethyl)phenyl)-2-methylpyrimidin-5-yl)-5-(1-methyl-1H-pyrazol-3-yl)-4-(trifluoromethyl)benzamide]",4.4 nM
3,"Cn1ccc(-c2cc(C(=O)Nc3cnc(CNC(=O)OC(C)(C)C)nc3-c3ccccc3)ccc2C(F)(F)F)n1 [Example 41, t-Butyl ((5-(3-(1-methyl-1H-pyrazol-3-yl)-4-(trifluoromethyl)benzamido)-4-phenylpyrimidin-2-yl)methyl)carbamate]",5 nM
4,"CC(=O)N1CCc2nc(-c3ccccc3)c(NC(=O)c3ccc(C(F)(F)F)c(-c4ncccn4)c3)cc2C1 [Example 147, N-(6-acetyl-2-phenyl-5,6,7,8-tetrahydro-1,6-naphthyridin-3-yl)-3-(pyrimidin-2-yl)-4-(trifluoromethyl)benzamide]",14 nM
5,"Cn1ccc(-c2cnc(N3CCC[C@@H]3CO)c(NC(=O)c3cc(-c4ncccn4)c(C(F)(F)F)cc3F)c2)n1 [Example 138, (R)-2-fluoro-N-(2-(2-(hydroxymethyl)pyrrolidin-1-yl)-5-(1-methyl-1H-pyrazol-3-yl)pyridin-3-yl)-5-(pyrimidin-2-yl)-4-(trifluoromethyl)benzamide]",27 nM
6,"Cc1ncc(NC(=O)c2cc(-c3ccn(C)n3)c(C(F)(F)F)cc2F)c(-c2ccccc2CCN)n1 [Example 134, N-(4-(2-(2-aminoethyl)phenyl)-2-methylpyrimidin-5-yl)-2-fluoro-5-(1-methyl-1H-pyrazol-3-yl)-4-(trifluoromethyl)benzamide]",7 nM
7,"CNC(=O)c1cnc(-c2ccccc2)c(NC(=O)c2cc(-c3ccn(C)n3)c(C(F)(F)F)cc2F)c1 [Example 83, 5-(2-fluoro-5-(1-methyl-1H-pyrazol-3-yl)-4-(trifluoromethyl)benzamido)-N-methyl-6-phenylnicotinamide]",1.1 nM
8,"Cn1ccc(-c2cc(C(=O)Nc3cnc(CNC(=O)CO)nc3-c3ccccc3)c(F)cc2C(F)(F)F)n1 [Example 52, 2-fluoro-N-(2-((2-hydroxyacetamido)methyl)-4-phenylpyrimidin-5-yl)-5-(1-methyl-1H-pyrazol-3-yl)-4-(trifluoromethyl)benzamide]",1.6 nM
9,"Cc1cc(-c2ccccc2)c(NC(=O)c2ccc(OC(F)(F)F)c(-c3ccn(C)n3)c2)cn1 [Example 3, 3-(1-Methyl-1H-pyrazol-3-yl)-N-(6-methyl-4-phenylpyridin-3-yl)-4-(trifluoromethoxy)benzamide]",54 nM
10,"Cn1ccc(-c2cc(C(=O)Nc3cnc(CN4CC(CO)OC4=O)nc3-c3ccccc3)c(F)cc2C(F)(F)F)n1 (single isomer, unassigned) [Example 228, (R or S)-2-fluoro-N-(2-((5-(hydroxymethyl)-2-oxooxazolidin-3-yl)methyl)-4-phenylpyrimidin-5-yl)-5-(1-methyl-1H-pyrazol-3-yl)-4-(trifluoromethyl)benzamide]",0.66 nM
11,"NC(=O)c1ncc(-c2cnc(-c3ccccc3)c(NC(=O)c3cc(-c4ncccn4)c(C(F)(F)F)cc3F)c2)cn1 [Example 175, 5-(5-(2-fluoro-5-(pyrimidin-2-yl)-4-(trifluoromethyl)benzamido)-6-phenylpyridin-3-yl)pyrimidine-2-carboxamide]",12.4 nM
12,"Cn1ccc(-c2cc(C(=O)Nc3cnc(CNC(=O)[C@@H]4COCCN4)nc3-c3ccccc3)c(F)cc2C(F)(F)F)n1 [Example 74, (S)-N-((5-(2-fluoro-5-(1-methyl-1H-pyrazol-3-yl)-4-(trifluoromethyl)benzamido)-4-phenylpyrimidin-2-yl)methyl)morpholine-3-carboxamide]",2 nM
13,"Cc1ncc(NC(=O)c2cc(-c3ccn(C)n3)c(C(F)(F)F)cc2Cl)c(-c2ccccc2)n1 [Example 23, 2-chloro-N-(2-methyl-4-phenylpyrimidin-5-yl)-5-(1-methyl-1H-pyrazol-3-yl)-4-(trifluoromethyl)benzamide]",1.1 nM
14,"O=C(Nc1cnc(C(=O)N2CCOCC2)nc1-c1ccccc1)c1ccc(C(F)(F)F)c(-c2cc[nH]n2)c1 [Example 88, N-(2-(morpholine-4-carbonyl)-4-phenylpyrimidin-5-yl)-3-(1H-pyrazol-3-yl)-4-(trifluoromethyl)benzamide]",1200 nM
15,"O=C(Nc1cc2c(nc1-c1ccccc1)CCNC2=O)c1cc(-c2ncccn2)c(C(F)(F)F)cc1F [Example 139, 2-Fluoro-N-(5-oxo-2-phenyl-5,6,7,8-tetrahydro-1,6-naphthyridin-3-yl)-5-(pyrimidin-2-yl)-4-(trifluoromethyl)benzamide]",1.4 nM
16,"Cc1ncc(NC(=O)c2ccc(C(F)(F)F)c(-n3nccn3)c2)c(-c2ccccc2)n1 [Example 16, N-(2-methyl-4-phenylpyrimidin-5-yl)-3-(2H-1,2,3-triazol-2-yl)-4-(trifluoromethyl)benzamide]",66 nM

# More lines, in order of falling IC50, values ahead:
row,IC50,SMILES
1,330 nM,"Cc1cc(-c2nc(C)ncc2NC(=O)c2ccc(C(F)(F)F)c(-c3nc(C)cs3)c2)[nH]n1 [Example 18, N-[2-methyl-4-(3-methyl-1H-pyrazol-5-yl)pyrimidin-5-yl]-3-(4-methyl-1,3-thiazol-2-yl)-4-(trifluoromethyl)benzamide]"
2,180 nM,"O=C(Nc1cc2c(nc1-c1ccccc1)CN(C(=O)CO)C2)c1cc(-c2ncccn2)c(C(F)(F)F)cc1F [Example 162, 2-fluoro-N-(6-(2-hydroxyacetyl)-2-phenyl-6,7-dihydro-5H-pyrrolo[3,4-b]pyridin-3-yl)-5-(pyrimidin-2-yl)-4-(trifluoromethyl)benzamide]"
3,83 nM,"Cn1ccc(-c2cc(C(=O)Nc3nccnc3-c3ccccc3)ccc2C(F)(F)F)n1 [Example 25, 3-(1-methyl-1H-pyrazol-3-yl)-N-(3-phenylpyrazin-2-yl)-4-(trifluoromethyl)benzamide]"
4,18 nM,"Cn1ccc(-c2cc(C(=O)Nc3cnc(C(C)(C)C(N)=O)nc3-c3ccccc3)c(F)cc2C(F)(F)F)n1 [Example 122, N-(2-(1-amino-2-methyl-1-oxopropan-2-yl)-4-phenylpyrimidin-5-yl)-2-fluoro-5-(1-methyl-1H-pyrazol-3-yl)-4-(trifluoromethyl)benzamide]"
5,16 nM,CNCc1ncc(NC(=O)c2ccc(C(F)(F)F)c(-c3ccn(C)n3)c2)c(-c2ccccc2)n1 [Example 45]
6,15 nM,"Cc1ccn(-c2cc(C(=O)Nc3cnc(C)nc3-c3ccccc3)ccc2C(F)(F)F)n1 [Example 17, N-(2-methyl-4-phenylpyrimidin-5-yl)-3-(3-methyl-1H-pyrazol-1-yl)-4-(trifluoromethyl)benzamide]"
7,10 nM,"Cn1ccc(-c2cc(C(=O)Nc3cc(-c4ccc(C(=O)O)cn4)cnc3-c3ccccc3)c(F)cc2C(F)(F)F)n1 [Example 171, 5′-(2-fluoro-5-(1-methyl-1H-pyrazol-3-yl)-4-(trifluoromethyl)benzamido)-6′-phenyl-[2,3′-bipyridine]-5-carboxylic acid]"
8,9.3 nM,"CC(=O)NCc1ncc(NC(=O)c2cc(-c3cc[nH]n3)c(C(F)(F)F)cc2F)c(-c2ccccc2)n1 [Example 54, N-(2-(acetamidomethyl)-4-phenylpyrimidin-5-yl)-2-fluoro-5-(1H-pyrazol-3-yl)-4-(trifluoromethyl)benzamide]"
9,5.5 nM,"Cc1ncc(NC(=O)c2ccc(C(F)(F)F)c(-c3ccn(C)n3)c2)c(-c2ccc(F)cc2)n1 [Example 31, N-[4-(4-fluorophenyl)-2-methylpyrimidin-5-yl]-3-(1-methyl-1H-pyrazol-3-yl)-4-(trifluoromethyl)benzamide]"
10,4.4 nM,"Cn1ccc(-c2cc(C(=O)Nc3cnc(C4NC(=O)NC4=O)nc3-c3ccccc3)c(F)cc2C(F)(F)F)n1 (centres unmarked) [Example 131, N-(2-(2,5-Dioxoimidazolidin-4-yl)-4-phenylpyrimidin-5-yl)-2-fluoro-5-(1-methyl-1H-pyrazol-3-yl)-4-(trifluoromethyl)benzamide]"
11,3 nM,"Cc1ncc(NC(=O)c2ccc(C(F)(F)F)c(-c3ccn(C)n3)c2)c(-c2ccccc2)n1 [Example 15, N-(2-methyl-4-phenylpyrimidin-5-yl)-3-(1-methyl-1H-pyrazol-3-yl)-4-(trifluoromethyl)benzamide]"
12,2 nM,"Cn1ccc(-c2cc(C(=O)Nc3cnc(CC(=O)O)nc3-c3ccccc3)c(F)cc2C(F)(F)F)n1 [Example 106, 2-(5-(2-fluoro-5-(1-methyl-1H-pyrazol-3-yl)-4-(trifluoromethyl)benzamido)-4-phenylpyrimidin-2-yl)acetic acid]"
13,1.9 nM,"Cn1ccc(-c2cc(C(=O)Nc3cnc(CN4CCCCCC4=O)nc3-c3ccccc3)c(F)cc2C(F)(F)F)n1 [Example 221, 2-fluoro-5-(1-methyl-1H-pyrazol-3-yl)-N-(2-((2-oxoazepan-1-yl)methyl)-4-phenylpyrimidin-5-yl)-4-(trifluoromethyl)benzamide]"
14,0.59 nM,"Cn1ccc(-c2cc(C(=O)Nc3cnc(CC(N)=O)nc3-c3ccccc3)c(F)cc2C(F)(F)F)n1 [Example 99, N-(2-(2-Amino-2-oxoethyl)-4-phenylpyrimidin-5-yl)-2-fluoro-5-(1-methyl-1H-pyrazol-3-yl)-4-(trifluoromethyl)benzamide]"
15,0.57 nM,"Cn1ccc(-c2cc(C(=O)Nc3ccc(C4CNC(=O)C4)nc3-c3ccccc3)c(F)cc2C(F)(F)F)n1 (single isomer, unassigned) [Example 198, (R or S)-2-Fluoro-5-(1-methyl-1H-pyrazol-3-yl)-N-(6-(5-oxopyrrolidin-3-yl)-2-phenylpyridin-3-yl)-4-(trifluoromethyl)benzamide]"
16,0.45 nM,"C[C@H](O)C(=O)NCc1ccc(NC(=O)c2cc(-c3ccn(C)n3)c(C(F)(F)F)cc2F)c(-c2ccccc2)n1 [Example 56, (S)-2-fluoro-N-(6-((2-hydroxypropanamido)methyl)-2-phenylpyridin-3-yl)-5-(1-methyl-1H-pyrazol-3-yl)-4-(trifluoromethyl)benzamide]"
